Experimental data: US8658668B2, “PI3 kinase/mTOR dual inhibitor” (Eli Lilly and Company, priority 2011, dated 2014)
Converted amounts (≈) assume the structure as drawn.

Experiment: Solubility determination
Assay type: physicochemical
Experimental: Prepare a 2 mg/mL solution of Example 2 in each of the required media by weighing approximately 1 mg of compound into a vial and add the required volume (i.e. 0.5 mL) of the corresponding media into each vial. Place capped vial on a rotating mixture over night (˜16 hours) at ambient conditions, then filter using 0.22 um Ultrafree-MC filters (Millipore™) and measure pH of filtrate (Orion 720A pH meter). Prepare the sample for HPLC analysis by transferring 100 μL of the filtrate into a HPLC vial and add 900 μL of 50% acetonitrile/water solution.

## CO[C@@H](C)Cn1c(=O)n(C)c2cnc3ccc(-c4cncc(C(C)(C)O)c4)cc3c21 [Example 2, 8-[5-(1-Hydroxy-1-methylethyl)pyridin-3-yl]-1-[(2S)-2-methoxypropyl]-3-methyl-1,3-dihydro-2H-imidazo[4,5-c]quinolin-2-one, Form I]
50 mM phosphate buffer at pH 2, average filtrate pH 2.31
  Solubility, Average mg/mL: ≧2.0 mg/mL
50 mM phosphate buffer at pH 4, average filtrate pH 4.92
  Solubility, Average mg/mL: 1.0524 mg/mL (≈ 2590 µM)
50 mM phosphate buffer at pH 6, average filtrate pH 6.14
  Solubility, Average mg/mL: 0.7178 mg/mL (≈ 1770 µM)
50 mM phosphate buffer at pH 8, average filtrate pH 8.00
  Solubility, Average mg/mL: 0.6352 mg/mL (≈ 1560 µM)
0.1N HCl, average filtrate pH 1.15, ~16 hours, ambient
  Solubility, Average mg/mL: ≧2.0 mg/mL
Fast, simulated intestinal fluid fasted state, average filtrate pH 6.45
  Solubility, Average mg/mL: 1.0203 mg/mL (≈ 2510 µM)
Fed, simulated intestinal fluid fed state, average filtrate pH 5.09
  Solubility, Average mg/mL: ≧2.0 mg/mL
SGF, simulated gastric fluid, average filtrate pH 3.52
  Solubility, Average mg/mL: 1.7529 mg/mL (≈ 4310 µM)
